Values quoted from earlier work as cited in patent publication US11643417B2, “Tetrahydrobenzofurodiazepinone compound and pharmaceutical use thereof” (priority 2020, dated 2023).

What was measured:
[1] = tested on: cells derived from chronic myelogenous leukemia; conditions: Non-Patent Document 15; cited from earlier work
[2] = tested on: mouse LN model animals; conditions: Non-Patent Document 18; cited from earlier work
[3] = tested on: mouse cancer-bearing model; conditions: Non-Patent Documents 16 and 17; cited from earlier work

Row | Compound | growth inhibitory and apoptosis-inducing effects [1] | glomerular damage [2] | mortality [2] | urinary albumin/creatinine ratio [2] | tumor growth inhibitory effect [3]
1 | O=C1NC(=O)/C(=C/c2cccc(C(F)(F)F)c2)S1 [SMI-4a] | growth inhibitory and apoptosis-inducing effects | reduce glomerular damage | improve mortality | reduce urinary albumin/creatinine ratio | –
2 | C[C@H]1CN(c2c(NC(=O)c3ccc(F)c(-c4c(F)cccc4F)n3)cnc3c2CC[C@H]3O)C[C@@H](N)[C@@H]1O [INCB053914] | – | – | – | – | tumor growth inhibitory effect
